In assay [1] the test system is Vaccinia. In kind it is cell-based.
In assay [2] the test system is Cowpox. It is filed as cell-based.

Take `Nc1ccn(C[C@@H](CO)OCP(=O)(O)O)c(=O)n1` [CDV]: the figures for the PR CDV EC50 in assay [1] and in assay [2] were 4.9 µg/mL and 10.3 µg/mL, respectively.

The record behind these values is patent US20050276815A1, “Antiviral activity from medicinal mushrooms” (priority 2004, published 2005).
